Results taken from patent publication US8569316B2, “Pyrimido [5,4-D] pyrimidine derivatives for the inhibition of tyrosine kinases” (Boehringer Ingelheim International GmbH, priority 2009, dated 2013).

Biological target: B-Raf (V600E)-kinase (Homo sapiens (Human), UniProt P15056, V600E)
Experiment: Kinase test B-Raf (V600E)
Type: biochemical
Conditions: 250 μM ATP, biotinylated MEK1 substrate
Description: In a dilution series 10 μL of test substance solution are placed in a multiwell plate. The dilution series is selected so that generally a range of concentrations of 2 μM to 0.128 nM or 0.017 nM is covered. If necessary the initial concentration of 2 μM is changed to 50 μM, 10 μM or 0.4 μM or 0.2857 μM and further dilution is carried out accordingly. The final concentration of DMSO is 5%. 10 μL of the B-Raf (V600E)-kinase solution are pipetted in (containing 0.5 ng B-Raf (V600E)-kinase in 20 mM Tris-HCl pH 7.5, 0.1 mM EDTA, 0.1 mM EGTA, 0.286 mM sodium orthovanadate, 10% glycerol, 1 mg/mL bovine serum albumin, 1 mM dithiothreitol) and the mixture is incubated for 1 h at RT under with shaking. The kinase reaction is started by the addition of 20 μL ATP solution [final concentration: 250 μM ATP, 30 mM Tris-HCl pH 7.5, 0.02% Brij, 0.2 mM sodium orthovanadate, 10 mM magnesium acetate, phosphatase cocktail (Sigma, #P2850, dilution recommended by the manufacturer), 0.1 mM EGTA] and 10 μL MEK1 solution [containing 50 ng biotinylated MEK1 (prepared from purified MEK1 according to standard procedure, e.g. with EZ-Link Sulpho-NHS-LC-Biotin reagent, Pierce, #21335) in 50 mM Hepes pH 7.5, 150 mM NaCl, 10% glycerol, 0.02% Brij-35, 0.2 mM PMSF, 0.2 mM benzamidine] and carried out for 60 min at RT with constant shaking. The reaction is stopped by the addition of 12 μL of a 100 mM EDTA solution and incubation is continued for a further 5 min. 55 μL of the reaction solution are transferred into a streptavidin-coated plate (e.g. Streptawell HighBond, Roche, #11989685001) and shaken gently for 1 h at RT, in order to bind biotinylated MEK1 to the plate. After elimination of the liquid the plate is washed five times with 200 μL of 1×PBS and 100 μL solution of primary antibody plus europium-labelled secondary antibody [Anti Phospho-MEK (Ser217/221), Cell Signaling, #9121 and Eu-N1 labeled goat-anti-rabbit antibody, Perkin Elmer, #AD0105], the primary antibody is diluted 1:2000 and the secondary antibody is diluted to 0.4-0.5 μg/mL in Delfia Assay Buffer (Perkin Elmer, #1244-111). After 1 h shaking at RT the solution is poured away and washed five times with 200 μL Delfia Wash Buffer (Perkin Elmer, #4010-0010/#1244-114). After the addition of 200 μL Enhancement Solution (Perkin Elmer, #4001-0010/#1244-105) the mixture is shaken for 10 min at RT and then measured in a Wallac Victor using the program “Delfia Time Resolved Fluorescence (Europium)”. IC50 values are obtained from these dosage-activity curves using a software program (GraphPadPrizm).

Sequence of B-Raf (V600E)-kinase (P15056 whole entry V600E): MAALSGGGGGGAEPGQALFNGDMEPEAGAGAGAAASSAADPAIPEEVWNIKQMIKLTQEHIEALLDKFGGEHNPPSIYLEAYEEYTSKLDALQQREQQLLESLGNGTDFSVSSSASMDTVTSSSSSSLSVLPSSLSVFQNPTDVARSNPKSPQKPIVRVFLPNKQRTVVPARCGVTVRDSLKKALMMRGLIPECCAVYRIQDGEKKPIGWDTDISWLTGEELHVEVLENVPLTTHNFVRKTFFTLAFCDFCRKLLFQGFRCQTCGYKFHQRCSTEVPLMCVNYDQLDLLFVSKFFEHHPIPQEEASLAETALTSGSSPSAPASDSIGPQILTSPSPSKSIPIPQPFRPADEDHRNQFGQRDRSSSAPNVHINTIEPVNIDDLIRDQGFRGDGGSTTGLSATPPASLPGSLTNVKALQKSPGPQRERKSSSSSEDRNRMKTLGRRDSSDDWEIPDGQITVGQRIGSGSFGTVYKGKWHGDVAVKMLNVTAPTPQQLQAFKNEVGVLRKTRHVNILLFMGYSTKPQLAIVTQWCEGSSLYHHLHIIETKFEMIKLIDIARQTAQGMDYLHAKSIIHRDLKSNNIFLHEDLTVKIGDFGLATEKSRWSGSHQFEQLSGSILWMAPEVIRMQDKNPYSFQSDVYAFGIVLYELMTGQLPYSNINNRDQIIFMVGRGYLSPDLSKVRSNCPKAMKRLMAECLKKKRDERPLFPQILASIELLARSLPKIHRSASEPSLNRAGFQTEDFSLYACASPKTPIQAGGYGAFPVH

Structure (SMILES) | IC50
Cc1ccc(C(=O)N2CCOCC2)cc1Nc1ncnc2cnc(N3CCOCC3)cc12 [I-4] | > 1400 nM
COc1ccc(NC(=O)c2ccc(C)c(Nc3ncnc4cnc(N5CCCC5)cc34)c2)cc1C(F)(F)F [I-3] | 316 nM
COc1ccc(NC(=O)c2ccc(C)c(Nc3ncnc4ccc(N5CCN(CC6CCN(C)CC6)CC5)nc34)c2)cc1C(F)(F)F [III-15] | 26 nM
COc1ccc(NC(=O)c2ccc(C)c(Nc3ncnc4cnc(N5CCN(C)CC5)cc34)c2)cc1C(F)(F)F [I-2] | 224 nM
COc1ccc(NC(=O)c2ccc(C)c(Nc3ncnc4ccc(N5CCN(C)CC5)nc34)c2)cc1C(F)(F)F [III-13] | 57 nM
COCCN1CCN(c2ccc3ncnc(Nc4cc(C(=O)Nc5ccc(OC)c(C(F)(F)F)c5)ccc4C)c3n2)CC1 [III-14] | 140 nM
COCCN1CCN(c2ccc3ncnc(Sc4cc(C(=O)Nc5cc(N6CCN(C)CC6)cc(C(F)(F)F)c5)ccc4C)c3n2)CC1 [III-53] | 190 nM
COc1c(NC(=O)c2ccc(C)c(Nc3ncnc4ccc(C5CCN(C)CC5)nc34)c2)cc(C(C)(C)C)cc1NS(C)(=O)=O [III-32] | 151 nM
Cc1ccc(C(=O)Nc2cc(N3CCN(C)CC3)cc(C(F)(F)F)c2)cc1Nc1ncnc2ccc(N3CCOCC3)nc12 [III-7] | 4 nM
COc1c(NC(=O)c2ccc(C)c(Nc3ncnc4ccc(C5=CCN(C(C)C)CC5)nc34)c2)cc(C(C)(C)C)cc1NS(C)(=O)=O [III-29] | 295 nM
Cc1ccc(NC(=O)c2cccc(C(C)(C)C#N)c2)cc1Nc1ncnc2ccc(N3CC[C@H](F)C3)nc12 [IV-4] | 11 nM
COc1c(NC(=O)c2ccc(C)c(Nc3ncnc4ccc(CC5CCN(CC6CC6)CC5)nc34)c2)cc(C(C)(C)C)cc1NS(C)(=O)=O [III-47] | 504 nM
COc1c(NC(=O)c2ccc(C)c(Nc3ncnc4ccc(N5CCN(CCN6CCOCC6)CC5)nc34)c2)cc(C(C)(C)C)cc1NS(C)(=O)=O [III-25] | 638 nM
COc1c(NC(=O)c2ccc(C)c(Nc3ncnc4ccc(CC5CCN(C(C)C)CC5)nc34)c2)cc(C(C)(C)C)cc1NS(C)(=O)=O [III-46] | 553 nM
COCCN1CCN(c2ccc3ncnc(Sc4cc(C(=O)Nc5cccc(C(C)(C)C#N)c5)ccc4C)c3n2)CC1 [III-52] | 261 nM
Cc1ccc(C(=O)Nc2cc(CN3CCCC3)cc(C(F)(F)F)c2)cc1Nc1ncnc2ccc(N3CCOCC3)nc12 [III-9] | 4 nM
COCCN1CCN(c2ccc3ncnc(Sc4cc(C(=O)Nc5cc(C(C)(C)C)cc(NS(C)(=O)=O)c5OC)ccc4C)c3n2)CC1 [III-55] | 1620 nM
COc1c(NC(=O)c2ccc(C)c(Nc3ncnc4ccc(C5CCN(CC6CC6)CC5)nc34)c2)cc(C(C)(C)C)cc1NS(C)(=O)=O [III-35] | 288 nM
CCN1CCC(Cc2ccc3ncnc(Nc4cc(C(=O)Nc5cc(C(C)(C)C)cc(NS(C)(=O)=O)c5OC)ccc4C)c3n2)CC1 [III-45] | 530 nM
COCCN1CCN(c2ccc3ncnc(Nc4cc(C(=O)Nc5cc(C(C)(C)C)cc(NS(C)(=O)=O)c5OC)ccc4C)c3n2)CC1 [III-19] | 476 nM
CCN1CCC(c2ccc3ncnc(Nc4cc(C(=O)Nc5cc(C(C)(C)C)cc(NS(C)(=O)=O)c5OC)ccc4C)c3n2)CC1 [III-33] | 185 nM
COc1c(NC(=O)c2ccc(C)c(Nc3ncnc4ccc(CC5CCN(C)CC5)nc34)c2)cc(C(C)(C)C)cc1NS(C)(=O)=O [III-44] | 364 nM
COc1ccc(NC(=O)c2ccc(C)c(Nc3ncnc4ccc(N5CCOCC5)nc34)c2)cc1C(F)(F)F [III-1] | 11 nM
Cc1ccc(NC(=O)c2cccc(C(C)(C)C#N)c2)cc1Nc1ncnc2ccc(N3CCN(C)CC3)nc12 [IV-2] | 8 nM
COc1c(NC(=O)c2ccc(C)c(Nc3ncnc4ccc(C5CCN(C(C)C)CC5)nc34)c2)cc(C(C)(C)C)cc1NS(C)(=O)=O [III-34] | 257 nM
CCOCCN1CCC(Cc2ccc3ncnc(Nc4cc(C(=O)Nc5cc(C(C)(C)C)cc(NS(C)(=O)=O)c5OC)ccc4C)c3n2)CC1 [III-50] | 479 nM
COc1c(NC(=O)c2ccc(C)c(Nc3ncnc4ccc(C5=CCN(C)CC5)nc34)c2)cc(C(C)(C)C)cc1NS(C)(=O)=O [III-30] | 344 nM
COc1c(NC(=O)c2ccc(C)c(Nc3ncnc4ccc(N5CCC(N6CCOCC6)C5)nc34)c2)cc(C(C)(C)C)cc1NS(C)(=O)=O (stereo not shown) [III-26] | 1460 nM
COCCN1CCN(c2ccc3ncnc(Nc4cc(NC(=O)c5cccc(C(C)(C)C#N)c5)ccc4C)c3n2)CC1 [IV-3] | 18 nM

Results, then the compound that gave them:

IC50 | Structure (SMILES)
32 nM | Cc1ccc(C(=O)Nc2cc(C(C)(C)C)on2)cc1Nc1ncnc2ccc(N3CCOCC3)nc12 [III-2]
286 nM | COc1c(NC(=O)c2ccc(C)c(Nc3ncnc4ccc(C5CCN(C)C5)nc34)c2)cc(C(C)(C)C)cc1NS(C)(=O)=O (stereo not shown) [III-40]
44 nM | COc1ccc(NC(=O)c2ccc(C)c(Nc3ncnc4ccc(N(C)C)nc34)c2)cc1C(F)(F)F [III-16]
70 nM | COc1c(NC(=O)c2ccc(C)c(Nc3ncnc4ccc(C5CCNCC5)nc34)c2)cc(C(C)(C)C)cc1NS(C)(=O)=O [III-31]
7 nM | Cc1ccc(C(=O)Nc2cc(C(C)(C)C)n[nH]2)cc1Nc1ncnc2ccc(N3CCOCC3)nc12 [III-5]
101 nM | COc1c(NC(=O)c2ccc(C)c(Nc3ncnc4ccc(C5=CCNCC5)nc34)c2)cc(C(C)(C)C)cc1NS(C)(=O)=O [III-27]
24 nM | COc1c(NC(=O)c2ccc(C)c(Nc3ncnc4ccc(N(C)C5CCOC5)nc34)c2)cc(C(C)(C)C)cc1NS(C)(=O)=O (stereo not shown) [III-20]
23 nM | Cc1ccc(C(=O)Nc2cc(C(C)(C)C)on2)cc1Nc1ncnc2ccc(C3=CCNCC3)nc12 [III-51]
25 nM | COc1c(NC(=O)c2ccc(C)c(Nc3ncnc4ccc(N5CC[C@@H](F)C5)nc34)c2)cc(C(C)(C)C)cc1NS(C)(=O)=O [III-22]
151 nM | COc1c(NC(=O)c2ccc(C)c(Nc3ncnc4ccc(C5CCNC5)nc34)c2)cc(C(C)(C)C)cc1NS(C)(=O)=O (stereo not shown) [III-39]
229 nM | COc1c(NC(=O)c2ccc(C)c(Nc3ncnc4ccc(C5CCCNC5)nc34)c2)cc(C(C)(C)C)cc1NS(C)(=O)=O (stereo not shown) [III-42]
508 nM | CCN1CCN(c2ccc3ncnc(Nc4cc(C(=O)Nc5cc(C(C)(C)C)cc(NS(C)(=O)=O)c5OC)ccc4C)c3n2)CC1 [III-23]
12 nM | Cc1ccc(C(=O)Nc2cc(C(C)(C)C)on2)cc1Nc1ncnc2ccc(N3CCN(C)CC3)nc12 [III-10]
9 nM | Cc1ccc(C(=O)Nc2cc(C(C)(C)C)on2)cc1Nc1ncnc2ccc(N(C)C)nc12 [III-17]
12 nM | Cc1ccc(C(=O)Nc2cc(C(C)(C)C)on2)cc1Nc1ncnc2ccc(N3CCN(CC4CCN(C)CC4)CC3)nc12 [III-12]
2060 nM | Cc1ccc(C(=O)n2nc(C(C)(C)C)cc2N)cc1Nc1ncnc2ccc(N3CCOCC3)nc12 [III-4]
213 nM | COc1c(NC(=O)c2ccc(C)c(Nc3ncnc4ccc(CC5CNCCOC5)nc34)c2)cc(C(C)(C)C)cc1NS(C)(=O)=O (stereo not shown) [III-43]
50 nM | COc1c(NC(=O)c2ccc(C)c(Nc3ncnc4ccc(N5CCOCC5)nc34)c2)cc(C(C)(C)C)cc1NS(C)(=O)=O [III-24]
4 nM | Cc1ccc(NC(=O)c2cccc(C(C)(C)C#N)c2)cc1Nc1ncnc2ccc(N3CCOCC3)nc12 [IV-1]
35 nM | COCCN1CCN(c2ccc3ncnc(Nc4cc(C(=O)Nc5cc(C(C)(C)C)on5)ccc4C)c3n2)CC1 [III-11]
5 nM | Cc1ccc(NC(=O)c2cccc(C(C)(C)C#N)c2)cc1Nc1ncnc2ccc(N[C@H]3CCOC3)nc12 [IV-5]
7 nM | Cc1ccc(C(=O)Nc2cccc(C(C)(C)C#N)c2)cc1Nc1ncnc2ccc(N3CCOCC3)nc12 [III-3]
269 nM | COCCN1CCN(c2ccc3ncnc(Sc4cc(C(=O)Nc5cc(C(C)(C)C)on5)ccc4C)c3n2)CC1 [III-54]
225 nM | COc1c(NC(=O)c2ccc(C)c(Nc3ncnc4ccc(N5CCN(C)CC5)nc34)c2)cc(C(C)(C)C)cc1NS(C)(=O)=O [III-18]
431 nM | COc1c(NC(=O)c2ccc(C)c(Nc3ncnc4ccc(C)nc34)c2)cc(C(C)(C)C)cc1NS(C)(=O)=O [III-28]
282 nM | COc1c(NC(=O)c2ccc(C)c(Nc3ncnc4ccc(C5=CCNC5)nc34)c2)cc(C(C)(C)C)cc1NS(C)(=O)=O [III-38]
